This is an account of results in PMC9329436, “Optimization of the 4-anilinoquin(az)oline scaffold as epidermal growth factor receptor (EGFR) inhibitors for chordoma utilizing a toxicology profiling assay platform” (Scientific Reports, 2022).

Assay in all cases: 33PanQinase activity assay
Common to all, as to assay type: biochemical

The target in one assay is T1, Aurora-C (Homo sapiens, UniProt Q9UQB9).
T1 sequence (Q9UQB9 1-309): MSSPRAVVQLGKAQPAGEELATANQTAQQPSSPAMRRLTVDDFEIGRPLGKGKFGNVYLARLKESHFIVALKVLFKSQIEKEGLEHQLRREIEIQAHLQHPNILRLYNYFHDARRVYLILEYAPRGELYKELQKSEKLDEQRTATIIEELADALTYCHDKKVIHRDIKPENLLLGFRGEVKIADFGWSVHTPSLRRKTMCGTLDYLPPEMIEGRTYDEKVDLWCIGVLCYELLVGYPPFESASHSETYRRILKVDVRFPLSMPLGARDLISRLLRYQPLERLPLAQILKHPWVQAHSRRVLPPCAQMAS
To be noted: for Residual activity: Aurora-C, singlicate. The text has this:
(§1) Table S4. Profiling of two compounds at two concentrations against 320 wild-type protein kinases; singlicate measurement; Residual activities (% of control).

The target in the next assay is T2, EPHA6 (Homo sapiens, UniProt Q9UF33).
T2 sequence (Q9UF33 23-1036): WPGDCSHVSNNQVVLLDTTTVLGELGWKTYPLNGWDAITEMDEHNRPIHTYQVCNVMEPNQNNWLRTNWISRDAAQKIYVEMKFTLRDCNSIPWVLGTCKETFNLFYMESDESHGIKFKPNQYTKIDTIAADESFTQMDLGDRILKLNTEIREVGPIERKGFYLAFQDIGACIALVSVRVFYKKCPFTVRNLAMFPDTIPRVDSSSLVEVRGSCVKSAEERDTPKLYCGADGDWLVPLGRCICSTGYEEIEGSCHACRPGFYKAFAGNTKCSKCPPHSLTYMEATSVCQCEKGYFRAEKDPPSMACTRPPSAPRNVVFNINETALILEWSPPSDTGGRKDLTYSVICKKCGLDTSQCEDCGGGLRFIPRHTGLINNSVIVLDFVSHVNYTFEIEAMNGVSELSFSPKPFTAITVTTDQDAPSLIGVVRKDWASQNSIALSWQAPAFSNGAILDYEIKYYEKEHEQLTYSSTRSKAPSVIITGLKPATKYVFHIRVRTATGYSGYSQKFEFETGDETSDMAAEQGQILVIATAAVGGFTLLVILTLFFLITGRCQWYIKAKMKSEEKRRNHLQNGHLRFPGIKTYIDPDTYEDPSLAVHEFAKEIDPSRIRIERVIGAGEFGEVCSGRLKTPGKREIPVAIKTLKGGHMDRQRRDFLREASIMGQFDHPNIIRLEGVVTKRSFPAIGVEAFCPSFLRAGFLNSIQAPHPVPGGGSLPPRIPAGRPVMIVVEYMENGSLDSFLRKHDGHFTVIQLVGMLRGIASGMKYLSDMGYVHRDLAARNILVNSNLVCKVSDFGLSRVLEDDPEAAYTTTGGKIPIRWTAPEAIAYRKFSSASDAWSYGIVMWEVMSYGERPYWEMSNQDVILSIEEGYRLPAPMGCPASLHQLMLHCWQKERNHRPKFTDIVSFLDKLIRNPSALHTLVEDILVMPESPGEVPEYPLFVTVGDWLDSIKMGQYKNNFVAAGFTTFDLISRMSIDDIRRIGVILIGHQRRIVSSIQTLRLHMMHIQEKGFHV
The conditions noted are these: for Residual activity: singlicate.
Text: as §1

In a further assay the target is T3, EPHB2 (Homo sapiens, UniProt P29323).
T3 sequence (P29323 19-1055): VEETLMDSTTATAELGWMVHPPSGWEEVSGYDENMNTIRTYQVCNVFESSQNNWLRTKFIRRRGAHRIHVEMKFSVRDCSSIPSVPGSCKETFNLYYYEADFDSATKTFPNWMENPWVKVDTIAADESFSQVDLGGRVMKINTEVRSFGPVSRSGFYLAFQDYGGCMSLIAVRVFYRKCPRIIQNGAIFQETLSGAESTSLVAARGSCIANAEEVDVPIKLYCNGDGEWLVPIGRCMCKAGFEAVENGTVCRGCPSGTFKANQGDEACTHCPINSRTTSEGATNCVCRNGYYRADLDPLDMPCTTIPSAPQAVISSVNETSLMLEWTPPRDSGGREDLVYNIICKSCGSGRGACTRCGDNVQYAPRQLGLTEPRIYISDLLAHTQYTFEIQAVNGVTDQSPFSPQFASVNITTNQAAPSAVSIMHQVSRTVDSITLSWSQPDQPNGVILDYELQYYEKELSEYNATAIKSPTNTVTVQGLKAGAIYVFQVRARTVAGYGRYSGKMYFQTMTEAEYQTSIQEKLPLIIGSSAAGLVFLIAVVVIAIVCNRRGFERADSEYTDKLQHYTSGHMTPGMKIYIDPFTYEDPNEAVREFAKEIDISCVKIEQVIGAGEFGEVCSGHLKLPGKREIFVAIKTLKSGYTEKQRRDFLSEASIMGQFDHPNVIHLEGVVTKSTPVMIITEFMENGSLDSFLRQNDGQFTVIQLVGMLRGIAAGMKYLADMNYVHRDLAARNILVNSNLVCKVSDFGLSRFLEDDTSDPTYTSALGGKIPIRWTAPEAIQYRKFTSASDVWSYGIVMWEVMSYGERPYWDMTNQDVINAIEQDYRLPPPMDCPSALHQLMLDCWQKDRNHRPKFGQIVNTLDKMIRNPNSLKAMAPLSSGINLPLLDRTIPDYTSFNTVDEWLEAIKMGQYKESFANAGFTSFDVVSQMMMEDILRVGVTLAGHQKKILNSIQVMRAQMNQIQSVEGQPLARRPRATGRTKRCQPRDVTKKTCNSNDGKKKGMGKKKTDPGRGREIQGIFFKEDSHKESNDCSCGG
The conditions noted are these: for Residual activity: singlicate.
Text: as §1

The target in another assay is ERBB4 (Homo sapiens, UniProt Q15303). To be noted: for Residual activity: singlicate.
Text: as §1

For another assay, the target named is MINK1 (Homo sapiens, UniProt Q8N4C8). The conditions noted are these: for Residual activity: singlicate.
Text: as §1

Another assay deals with NIK (Homo sapiens, UniProt Q99558). The conditions noted are these: for Residual activity: NIK, singlicate.
Text: as §1

The next assay deals with PIM1 (Homo sapiens, UniProt P11309). To be noted: for Residual activity: singlicate.
Text: as §1

For another assay, the target named is RIPK2 (Homo sapiens, UniProt O43353). To be noted: for Residual activity, RIPK2: kinase RIPK2, singlicate.
Text: as §1

Chain of MINK1 (Q8N4C8 whole entry): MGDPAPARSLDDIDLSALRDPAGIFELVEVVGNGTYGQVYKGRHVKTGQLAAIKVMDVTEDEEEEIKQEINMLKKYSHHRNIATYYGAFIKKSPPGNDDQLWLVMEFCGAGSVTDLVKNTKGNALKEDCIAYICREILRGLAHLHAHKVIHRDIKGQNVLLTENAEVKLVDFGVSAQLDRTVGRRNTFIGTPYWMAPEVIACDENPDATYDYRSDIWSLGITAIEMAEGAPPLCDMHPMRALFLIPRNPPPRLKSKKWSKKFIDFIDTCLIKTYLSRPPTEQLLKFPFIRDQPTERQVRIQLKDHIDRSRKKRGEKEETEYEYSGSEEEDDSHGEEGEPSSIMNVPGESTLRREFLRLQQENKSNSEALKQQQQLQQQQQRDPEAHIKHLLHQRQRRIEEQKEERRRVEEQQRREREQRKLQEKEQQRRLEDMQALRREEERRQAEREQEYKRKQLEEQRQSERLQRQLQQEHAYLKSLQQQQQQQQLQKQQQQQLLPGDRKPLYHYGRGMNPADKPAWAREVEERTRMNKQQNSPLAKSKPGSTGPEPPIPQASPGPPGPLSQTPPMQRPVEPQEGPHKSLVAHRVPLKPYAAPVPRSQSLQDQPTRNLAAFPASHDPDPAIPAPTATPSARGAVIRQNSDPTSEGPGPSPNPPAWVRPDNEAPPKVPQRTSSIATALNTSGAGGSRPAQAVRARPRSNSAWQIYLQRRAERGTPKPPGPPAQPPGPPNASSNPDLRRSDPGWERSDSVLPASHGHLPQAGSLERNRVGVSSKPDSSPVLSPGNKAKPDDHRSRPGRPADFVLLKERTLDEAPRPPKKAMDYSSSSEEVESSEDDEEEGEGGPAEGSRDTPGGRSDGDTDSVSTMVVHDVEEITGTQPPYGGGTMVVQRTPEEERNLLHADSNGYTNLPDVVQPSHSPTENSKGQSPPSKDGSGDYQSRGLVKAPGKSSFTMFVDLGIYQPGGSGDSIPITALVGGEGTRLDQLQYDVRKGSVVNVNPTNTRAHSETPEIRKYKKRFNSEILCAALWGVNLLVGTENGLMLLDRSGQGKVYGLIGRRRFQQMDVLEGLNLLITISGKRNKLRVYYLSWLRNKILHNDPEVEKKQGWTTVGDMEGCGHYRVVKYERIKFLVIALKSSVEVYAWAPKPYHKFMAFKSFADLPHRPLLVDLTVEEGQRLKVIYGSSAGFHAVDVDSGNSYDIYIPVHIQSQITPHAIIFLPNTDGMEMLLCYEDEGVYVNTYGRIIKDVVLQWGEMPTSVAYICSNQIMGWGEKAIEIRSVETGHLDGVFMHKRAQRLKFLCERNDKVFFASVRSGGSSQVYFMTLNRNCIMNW
Chain of NIK (Q99558 whole entry): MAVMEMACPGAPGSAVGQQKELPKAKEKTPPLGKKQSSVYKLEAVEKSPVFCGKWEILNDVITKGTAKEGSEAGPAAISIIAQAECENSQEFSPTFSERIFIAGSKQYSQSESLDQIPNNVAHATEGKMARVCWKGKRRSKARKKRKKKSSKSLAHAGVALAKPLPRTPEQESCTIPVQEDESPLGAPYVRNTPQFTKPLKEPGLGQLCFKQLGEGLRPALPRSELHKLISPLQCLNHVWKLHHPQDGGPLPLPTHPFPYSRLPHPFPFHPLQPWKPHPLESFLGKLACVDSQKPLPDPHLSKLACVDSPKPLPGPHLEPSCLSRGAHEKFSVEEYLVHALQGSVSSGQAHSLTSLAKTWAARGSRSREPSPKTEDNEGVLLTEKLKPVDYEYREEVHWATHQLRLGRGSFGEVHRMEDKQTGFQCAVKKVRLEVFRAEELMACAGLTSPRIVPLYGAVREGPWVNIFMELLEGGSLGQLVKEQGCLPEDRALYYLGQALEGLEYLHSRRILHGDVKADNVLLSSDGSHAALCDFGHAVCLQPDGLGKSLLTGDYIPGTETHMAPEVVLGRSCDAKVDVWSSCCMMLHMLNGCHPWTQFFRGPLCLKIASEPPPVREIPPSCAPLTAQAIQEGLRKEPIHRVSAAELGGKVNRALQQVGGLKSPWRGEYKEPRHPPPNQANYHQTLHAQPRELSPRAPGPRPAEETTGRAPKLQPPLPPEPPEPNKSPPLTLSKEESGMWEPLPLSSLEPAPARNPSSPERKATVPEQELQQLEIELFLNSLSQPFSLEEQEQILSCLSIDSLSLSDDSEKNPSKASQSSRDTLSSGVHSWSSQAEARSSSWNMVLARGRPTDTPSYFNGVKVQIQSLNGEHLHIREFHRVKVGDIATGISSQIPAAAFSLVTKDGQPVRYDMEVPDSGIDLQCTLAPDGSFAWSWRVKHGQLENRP
Chain of PIM1 (P11309 whole entry): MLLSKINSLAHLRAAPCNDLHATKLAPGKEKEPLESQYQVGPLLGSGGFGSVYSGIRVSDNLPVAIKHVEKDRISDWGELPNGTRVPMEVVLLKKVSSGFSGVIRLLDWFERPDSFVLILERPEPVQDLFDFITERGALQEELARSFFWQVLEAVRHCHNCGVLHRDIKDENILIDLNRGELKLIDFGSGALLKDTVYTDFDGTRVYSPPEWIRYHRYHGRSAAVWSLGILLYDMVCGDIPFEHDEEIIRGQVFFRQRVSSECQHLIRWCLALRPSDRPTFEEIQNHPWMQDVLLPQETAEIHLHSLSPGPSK
Chain of RIPK2 (O43353 whole entry): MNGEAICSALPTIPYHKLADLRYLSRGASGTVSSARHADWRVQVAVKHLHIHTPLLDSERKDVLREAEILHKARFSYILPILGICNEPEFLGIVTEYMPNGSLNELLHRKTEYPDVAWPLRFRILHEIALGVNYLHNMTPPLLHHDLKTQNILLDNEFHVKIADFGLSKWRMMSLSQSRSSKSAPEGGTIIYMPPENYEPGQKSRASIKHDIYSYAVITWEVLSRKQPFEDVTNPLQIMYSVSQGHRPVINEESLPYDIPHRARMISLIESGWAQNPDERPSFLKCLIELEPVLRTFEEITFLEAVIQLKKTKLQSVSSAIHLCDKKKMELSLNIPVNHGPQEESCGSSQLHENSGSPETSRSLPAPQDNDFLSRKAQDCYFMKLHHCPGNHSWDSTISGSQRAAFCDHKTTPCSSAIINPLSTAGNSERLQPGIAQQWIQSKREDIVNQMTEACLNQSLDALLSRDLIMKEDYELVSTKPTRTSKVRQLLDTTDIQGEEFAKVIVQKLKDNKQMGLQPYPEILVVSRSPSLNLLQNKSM
Chain of ERBB4 (Q15303 26-1308): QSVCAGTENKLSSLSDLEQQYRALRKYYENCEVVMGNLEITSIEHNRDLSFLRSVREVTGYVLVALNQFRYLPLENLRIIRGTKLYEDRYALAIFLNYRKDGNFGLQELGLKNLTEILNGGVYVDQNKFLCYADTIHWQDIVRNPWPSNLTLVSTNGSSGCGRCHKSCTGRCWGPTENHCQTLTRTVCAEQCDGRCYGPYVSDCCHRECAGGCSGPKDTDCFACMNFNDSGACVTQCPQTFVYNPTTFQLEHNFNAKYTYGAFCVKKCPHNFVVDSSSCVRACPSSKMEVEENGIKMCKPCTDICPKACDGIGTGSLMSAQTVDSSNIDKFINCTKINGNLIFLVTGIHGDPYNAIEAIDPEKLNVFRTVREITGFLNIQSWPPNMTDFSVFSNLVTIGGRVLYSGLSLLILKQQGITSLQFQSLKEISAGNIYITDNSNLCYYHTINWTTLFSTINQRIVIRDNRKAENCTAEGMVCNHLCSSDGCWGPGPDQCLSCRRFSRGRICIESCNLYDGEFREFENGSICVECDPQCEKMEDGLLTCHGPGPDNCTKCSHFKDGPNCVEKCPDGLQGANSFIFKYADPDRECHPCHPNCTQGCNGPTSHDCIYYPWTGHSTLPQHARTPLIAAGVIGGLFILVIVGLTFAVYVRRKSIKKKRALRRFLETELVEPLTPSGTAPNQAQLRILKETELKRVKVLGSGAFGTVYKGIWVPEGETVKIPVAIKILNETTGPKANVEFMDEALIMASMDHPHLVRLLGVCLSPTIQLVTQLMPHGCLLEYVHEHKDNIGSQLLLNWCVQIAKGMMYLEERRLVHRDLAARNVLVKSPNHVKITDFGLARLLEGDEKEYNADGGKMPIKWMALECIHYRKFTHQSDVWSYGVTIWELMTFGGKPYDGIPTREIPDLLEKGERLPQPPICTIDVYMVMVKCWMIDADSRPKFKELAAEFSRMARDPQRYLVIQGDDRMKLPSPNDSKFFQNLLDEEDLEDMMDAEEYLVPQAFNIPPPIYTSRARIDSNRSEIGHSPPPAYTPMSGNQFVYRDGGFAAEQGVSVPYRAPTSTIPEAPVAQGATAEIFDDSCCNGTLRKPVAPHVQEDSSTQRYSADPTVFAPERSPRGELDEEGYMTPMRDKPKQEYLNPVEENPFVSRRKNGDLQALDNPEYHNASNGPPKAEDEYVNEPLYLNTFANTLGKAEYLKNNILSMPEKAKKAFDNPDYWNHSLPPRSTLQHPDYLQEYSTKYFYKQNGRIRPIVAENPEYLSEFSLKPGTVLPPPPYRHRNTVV

For the compound `C#Cc1cc(Nc2ncnc3cc(I)ccc23)ccc1Cl` [Compound 41], the Residual activity on Aurora-C (1.0E-06 M) is recorded as 70 % of control; on Aurora-C (1.0E-07 M), 89 % of control; on EPHA6 (EPHA6, 1.0E-06 M), 75 % of control; at EPHA6 (EPHA6, 1.0E-07 M), 94 % of control; at EPHB2 (EPHB2, 1.0E-06 M) it was 58 % of control; on EPHB2 (EPHB2, 1.0E-07 M), 79 % of control. In addition, the Residual activity on ERBB4 (ERBB4, 1.0E-06 M) is 44 % of control; at ERBB4 (ERBB4, 1.0E-07 M) it was 92 % of control; on MINK1 (MINK1, 1.0E-06 M), 54 % of control; on MINK1 (MINK1, 1.0E-07 M) it was 64 % of control; on NIK (1.0E-06 M), 120 % of control; on NIK (1.0E-07 M), 126 % of control. Moreover, the Residual activity on PIM1 (PIM1, 1.0E-06 M) is given as 71 % of control; at PIM1 (PIM1, 1.0E-07 M), 85 % of control. The compound further displayed an ERBB4 inhibition on ERBB4 (10 μM) of more than 50%. The figures for the “Residual activity, RIPK2” value at RIPK2 (assay conc. 1.0E-06 M) and at RIPK2 (assay conc. 1.0E-07 M) were 96 % of control and 107 % of control, respectively.

`C#Cc1cc(Nc2ncnc3cc(OC)c(OC)cc23)ccc1Cl` [Compound 45]: the Aurora-C inhibition at Aurora-C (10 μM) was more than 50%. Also, the Residual activity is 85 % of control at Aurora-C (1.0E-06 M); 98 % of control on Aurora-C (1.0E-07 M); 35 % of control on EPHA6 (EPHA6, 1.0E-06 M); 89 % of control on EPHA6 (EPHA6, 1.0E-07 M); 11 % of control at EPHB2 (EPHB2, 1.0E-06 M); 50 % of control at EPHB2 (EPHB2, 1.0E-07 M). Further, the Residual activity at ERBB4 (ERBB4, 1.0E-06 M) is listed as 7 % of control; at ERBB4 (ERBB4, 1.0E-07 M), 34 % of control; at MINK1 (MINK1, 1.0E-06 M), 29 % of control; on MINK1 (MINK1, 1.0E-07 M) it was 86 % of control; at NIK (1.0E-06 M), 122 % of control; at NIK (1.0E-07 M) it was 127 % of control. The Residual activity is given as 38 % of control at PIM1 (PIM1, 1.0E-06 M) and 73 % of control at PIM1 (PIM1, 1.0E-07 M). The EPHA6 inhibition on EPHA6 (10 μM) was more than 50%. For the same compound, the EPHB2 inhibition on EPHB2 (10 μM) is listed as more than 50%. On ERBB4 (1 μM), the ERBB4 inhibition entry is “moderate inhibition”. For the same compound, the MINK1 inhibition on MINK1 (10 μM) is given as more than 50%. Moreover, the NIK inhibition at NIK (10 μM) was more than 50%. On PIM1 (10 μM), this compound had a PIM1 inhibition of more than 50%. For the same compound, the RIPK2 inhibition on RIPK2 (10 μM) is given as more than 50%. The “Residual activity, RIPK2” value was 13 % of control on RIPK2 (assay conc. 1.0E-06 M) and 59 % of control on RIPK2 (assay conc. 1.0E-07 M).
